Experimental data from patent US8471036B2, “Rhodacyanine derivative and pharmaceutical composition for treating leishmaniasis” (FUJIFILM Corporation, priority 2009, dated 2013).
“Also recorded” adds a separate entry of the source. Structures can show the parent of a compound that is named as a salt. Where two headings read alike, the source gives them in different places.

Assays:
[1] = test system: Rat-derived L6 cells (rat skeletal myoblast cells); assay: Rat L6 cell proliferation inhibition test; format: cell-based
Description: Rat-derived L6 cells (rat skeletal myoblast cells) were used. The cells were cultured at 37° C. at a CO2 concentration of 5%, using, as a culture medium, a RPMI 1640 medium supplemented with 1% L-glutamine (200 mM) and 10% fetal bovine serum (FBS).
Each of the compounds to be tested was dissolved in DMSO to give a test solution having a concentration of 10 mg/mL.
96-well culture plates of which each well contained 4×10^4 cells in 100 μL of the culture medium were prepared. After 24 hours, a 3-fold dilution series was prepared according to an ordinary method by adding a medium containing the compound to be tested, and the test was conducted.
After incubating the culture plates for 72 hours in an incubator, the plates were inspected with respect to proliferation activity. The inspection was conducted as follows. 10 μL of the Alamar Blue aqueous solution as described above was added to each well, and the plates were incubated for another 2 hours. Then, the culture plates were mounted on a microplate fluorometer, and irradiated with light at an excitation wavelength of 536 nm. The intensity of fluorescence at 588 nm was measured, and the residual ratios of L6 cells in the group added with the test solution and in the control were calculated.
The 50% proliferation inhibitory concentration (IC50) values were determined based on the residual ratios of cells obtained above, and the results are shown in Table 1. In Table 1, “ND” represents that the test was not conducted.

[2] = test system: Leishmania donovani (L. Don, MHOM/ET/67/L82 strain); assay: Leishmania protozoa proliferation inhibition test (amastigotes, Alamar Blue); format: cell-based; conditions: for Selective Toxicity Coefficient: (IC50 against rat L6 cells)/(IC50 against leishmania protozoa)
Description: In this test, Leishmania donovani (L. Don, MHOM/ET/67/L82 strain) was used. The protozoa were maintained in the Syrian Golden hamster, and amastigotes were collected from the spleen of an infected hamster. A SM medium supplemented with 10% heat-inactivated fetal bovine serum was used in the experiment, and the pH was adjusted to 5.4. The protozoa were grown at 37° C. under an atmosphere having a CO2 concentration of 5%. The activity with respect to inhibition of the proliferation of leishmania protozoa was studied for Compounds A, C, and D according to the invention for test, and for MKT-077, Compound X, and miltefosine (positive compound, existing drug) as comparative compounds. The structures of the compounds are as shown below. Each compound was dissolved in DMSO to give a test solution having a predetermined concentration. Each of the compounds to be used in the test was dissolved in DMSO to give a test solution having a concentration of 10 mg/mL. Assays were performed in 96-well culture plates, with each well containing 100 μL of the culture medium containing 10^5 amastigotes with or without the test compound at a predetermined serial dilution. The test was conducted twice. […] Each culture plate was mounted on a microplate fluorometer, and irradiated with light at an excitation wavelength of 536 nm. The intensity of fluorescence at 588 nm was measured, and the residual ratios of leishmania protozoa in the group added with the test solution and in the control were calculated. […] The selective toxicity coefficient, which is used as an index of the selectivity against leishmania protozoa, was calculated according to the following equation, and the drug efficacy was evaluated. Selective toxicity coefficient=(IC50 value of the test compound against rat L6 cells)/(IC50 value of the test compound against leishmania protozoa)

[3] = test system: leishmania protozoa in macrophages (L. Don); assay: Leishmania protozoa proliferation inhibition test in macrophages; format: cell-based, Leishmania donovani; conditions: amastigotes in murine peritoneal macrophages, 4 days incubation, number of infected macrophages
Description: The inhibitory activity on the proliferation of leishmania protozoa in macrophages was examined for Compounds A and B according to the invention and comparative compounds MKT-077, Compound X, Compound Y, Compound Z, and miltefosine (positive compound, existing drug). The structures of the compounds are as shown below. Peritoneal macrophages from NMRI mice are collected 1 day after stimulation of macrophage production with an intraperitoneal injection of 2 mL of a 2% potato starch suspension. The present test was conducted at 37° C. under an atmosphere having a CO2 concentration of 5%. Each of the compounds to be used in the test was dissolved in DMSO to give a test solution having a predetermined concentration. […] After 24 hours, 100 μL of a suspension containing amastigotes (1.2×10^6/mL) was further added to each well, giving a suspension having a amastigotes/macrophages ratio of 3/1. The amastigotes were prepared in the same manner as above, and suspended in the RPMI/FBS medium. After 24 hours, the medium containing free amastigotes was removed, the cells were washed once with medium, and fresh media containing the test compound at serial dilutions (four 3-fold dilutions for each compound) were added to the wells. […] The IC50 values were determined based on the number of infected macrophages.

[4] = test system: L. donovani (strain MHOM/ET/67/HU3); assay: Anti-leishmania activity test using mice infected with leishmania; format: in vivo, Female BALB/c mice; conditions: amastigotes per 500 liver cells
Description: Compound A was used as the test compound in this test. Further, a pentostam-sensitive L. donovani (strain MHOM/ET/67/HU3) was used in this test, and the protozoa were maintained in Syrian Golden hamsters, and amastigotes were isolated from spleen cells of the infected hamster. Then, an inoculum containing 7.5×10^7 amastigotes/mL in RPMI 1640 was prepared. Female BALB/c mice (20 g) were infected with the amastigotes by intravenous injection at the tail vein on day 0. On day 7 after infection, one mouse was sacrificed, liver smears were methanol-fixed and Giemsa-stained, thereby confirming infection. The test compound was dissolved in an aqueous solution containing 10% ethanol and 5% glucose, and administered to the mice once a day for 5 days from day 7 to day 11. 3 days after the completion of the administration of the drug, livers were removed and weighed, and smears were methanol-fixed and then Giemsa-stained. The number of amastigotes (average value) per 500 liver cells was determined by counting, and the infection inhibition rate was determined based on the comparison thereof with mice that had not been treated with the drug. Infection inhibition rate (%)=[1−(b−a)/(c−a)]×100 a: Initial infection rate b: Infection rate in the mice treated with the test solution c: Infection rate in the control mice

[5] = test system: Peritoneal macrophages from NMRI mice; assay: Toxic effect on macrophages in the macrophage test; format: cell-based; conditions: murine peritoneal macrophages in the macrophage test
Description: Peritoneal macrophages from NMRI mice are collected 1 day after stimulation of macrophage production with an intraperitoneal injection of 2 mL of a 2% potato starch suspension. The present test was conducted at 37° C. under an atmosphere having a CO2 concentration of 5%. Each of the compounds to be used in the test was dissolved in DMSO to give a test solution having a predetermined concentration.
100 μL of a murine macrophage suspension (4×10^5/mL) in a RPMI 1640 medium containing bicarbonate and N-2-hydroxyethylpiperazine-N′-2-ethanesulfonic acid (HEPES) and supplemented with 10% heat-inactivated fetal bovine serum (RPMI/FBS medium) was added to wells of 96-well culture plates. After 24 hours, 100 μL of a suspension containing amastigotes (1.2×10^6/mL) was further added to each well, giving a suspension having a amastigotes/macrophages ratio of 3/1. The amastigotes were prepared in the same manner as above, and suspended in the RPMI/FBS medium. After 24 hours, the medium containing free amastigotes was removed, the cells were washed once with medium, and fresh media containing the test compound at serial dilutions (four 3-fold dilutions for each compound) were added to the wells. The growth of the protozoa in samples treated with the test-compound-containing media was compared with that of the control. Specifically, after 4 days of incubation, the samples were fixed with methanol, and thereafter stained with a 10% Giemsa solution. The IC50 values were determined based on the number of infected macrophages.
It is unexpected and surprising finding that such a harsh toxic effect against macrophages is reduced by introduction of a halogen atom, particularly a fluorine atom, according to the invention, and anti-leishmania activity is manifested.

[6] = Rattus norvegicus, L6, 72 h, read-out: 50% Proliferation Inhibitory Concentration IC50 L-6 Cells, rat L6 cells, 72 hours incubation, Alamar Blue
[7] = Leishmania donovani, 72 h, pH 5.4, read-out: 50% Proliferation Inhibitory Concentration IC50 L. Don, amastigotes, 72 hours incubation, pH 5.4, Alamar Blue

## CCn1c(=O)/c(=C/C=C2\Sc3ccccc3N2C)s/c1=C\c1sc2ccc(F)cc2[n+]1C (as salt: maleate) [Compound C, 2-((3-ethyl-5-(2-(3-methylbenzo[d]thiazol-2(3H)-ylidene)ethylidene)-4-oxothiazolidin-2-ylidene)methyl)-5-fluoro-3-methylbenzo[d]thiazol-3-ium maleate]
other
  melting point: 260.1 to 260.8 °C

## CCn1c(=O)/c(=C/C=C2\Sc3ccccc3N2C)s/c1=C\c1sc2ccc(F)cc2[n+]1C.[Cl-] [Compound A, 2-((3-ethyl-5-(2-(3-methylbenzo[d]thiazole-2(3H)-ylidene)ethylidene)-4-oxothiazolidine-2-ylidene)methyl-5-fluoro-3-methylbenzo[d]thiazole-3-ium chloride]
[1]; rat L6 cells, 72 hours incubation, Alamar Blue, read-out: 50% Proliferation Inhibitory Concentration IC50 L-6 Cells
  IC50: > 173000 nM
[2]; Leishmania donovani, amastigotes, 72 hours incubation, pH 5.4, Alamar Blue, read-out: 50% Proliferation Inhibitory Concentration IC50 L. Don
  IC50: 11 nM
[3]; Leishmania, Macrophage, 96 h
  IC50: 353 nM

## CCn1c(=O)/c(=C/C=C2\Sc3ccccc3N2C)s/c1=C\c1sc2ccc(F)cc2[n+]1C.[Cl-] [Compound A]
[4]; intravenous injection 0.20 mg/kg/day × 5 days
  Infection Inhibition Rate: 16.1%
[4]; intravenous injection 1.30 mg/kg/day × 5 days
  Infection Inhibition Rate: 94.9%
[4]; intravenous injection 4.10 mg/kg/day × 5 days
  Infection Inhibition Rate: 97.1%
[1]; rat L6 cells
  Toxicity toward normal cells: only a weak toxicity toward normal cells
[2]
  Selective Toxicity Coefficient: >15,000
other
  melting point: 274.5 to 275.6 °C

## CCn1c(=O)/c(=C/C=C2\Sc3ccccc3N2C)s/c1=C\c1sc2ccc(F)cc2[n+]1C [Compound C, 2-((3-ethyl-5-(2-(3-methylbenzo[d]thiazol-2(3H)-ylidene)ethylidene)-4-oxothiazolidin-2-ylidene)methyl)-5-fluoro-3-methylbenzo[d]thiazol-3-ium maleate]
[1]; [6]
  IC50: 71700 nM
[1]; rat L6 cells
  Toxicity toward normal cells: only a weak toxicity toward normal cells
[2]
  Selective Toxicity Coefficient: 2,870
[2]; [7]
  IC50: 25 nM

## CCn1c(=O)/c(=C/C=C2\Sc3ccccc3N2C)s/c1=C\c1sc2ccc(F)cc2[n+]1C [Compound D, 2-((3-ethyl-5-(2-(3-methylbenzo[d]thiazol-2(3H)-ylidene)ethylidene)-4-oxothiazolidin-2-ylidene)methyl)-5-fluoro-3-methylbenzo[d]thiazol-3-ium methanesulfonate]
[1]; read-out: 50% Proliferation Inhibitory Concentration IC50 L-6 Cells, rat L6 cells, 72 hours incubation, Alamar Blue, methanesulfonate
  IC50: 84500 nM
[2]; methanesulfonate
  Selective Toxicity Coefficient: 4,220
[2]; read-out: 50% Proliferation Inhibitory Concentration IC50 L. Don, amastigotes, 72 hours incubation, pH 5.4, Alamar Blue, methanesulfonate
  IC50: 20 nM

## CCn1c(=O)/c(=C/C=C2\Sc3ccccc3N2C)s/c1=C\c1sc2ccccc2[n+]1C [Compound X, reference compound]
[5]
  Toxic effect against macrophages: Could not be tested as the macrophages died
[1]; [6]
  IC50: 125000 nM
[2]
  Selective Toxicity Coefficient: 2,400
[2]; [7]
  IC50: 52 nM

## CCN1/C(=C/C=c2\s/c(=C\c3sc4c5ccccc5ccc4[n+]3CC)n(CC)c2=O)Sc2ccc3ccccc3c21 [Compound Y]
[5]
  Toxic effect against macrophages: macrophages were killed by strong toxic effects; also recorded: Could not be tested as the macrophages died

## CCN1CCS/C1=C\C=c1/s/c(=C\c2sc3c4ccccc4ccc3[n+]2CCO)n(CC)c1=O [Compound Z]
[5]
  Toxic effect against macrophages: macrophages were killed by strong toxic effects; also recorded: Could not be tested as the macrophages died

## CCCCCCCCCCCCCCCCOP(=O)([O-])OCC[N+](C)(C)C [Miltefosine, miltefosine, reference compound]
[2]; amastigotes, 72 hours incubation, pH 5.4, Alamar Blue, read-out: 50% Proliferation Inhibitory Concentration IC50 L. Don
  IC50: 430 nM
[3]
  IC50: 811 nM
